From patent US8618289B2 (Ambit Biosciences Corporation, priority 2008, dated 2013) come the findings set out here.

In test [1] the test system is MEK1 phosphorylation in the A375 human melanoma cell line. The experiment in a line: cells. Particulars: A-375, read-out: pMEK IC50.
The subject of the next test is A375 cells. Kind of test: cells. Particulars: Homo sapiens, A-375, read-out: A375 Viability EC50.
For test [2], the target named is RAF kinases (Homo sapiens, UniProt P15056). Kind of test: biochemical.
Test [3] addresses RAF kinases (Homo sapiens, UniProt P04049). The experiment in a line: biochemical.

Where a name gives a salt, the structure may show the parent alone.

The term IC50 denotes the midpoint of a concentration-inhibition curve. One may read the EC50 as the concentration needed to bring the measured effect to its halfway point. The Kd is a measure of binding affinity in units of concentration.

Sequence of RAF kinases (Homo sapiens, UniProt P04049) (P04049 whole entry): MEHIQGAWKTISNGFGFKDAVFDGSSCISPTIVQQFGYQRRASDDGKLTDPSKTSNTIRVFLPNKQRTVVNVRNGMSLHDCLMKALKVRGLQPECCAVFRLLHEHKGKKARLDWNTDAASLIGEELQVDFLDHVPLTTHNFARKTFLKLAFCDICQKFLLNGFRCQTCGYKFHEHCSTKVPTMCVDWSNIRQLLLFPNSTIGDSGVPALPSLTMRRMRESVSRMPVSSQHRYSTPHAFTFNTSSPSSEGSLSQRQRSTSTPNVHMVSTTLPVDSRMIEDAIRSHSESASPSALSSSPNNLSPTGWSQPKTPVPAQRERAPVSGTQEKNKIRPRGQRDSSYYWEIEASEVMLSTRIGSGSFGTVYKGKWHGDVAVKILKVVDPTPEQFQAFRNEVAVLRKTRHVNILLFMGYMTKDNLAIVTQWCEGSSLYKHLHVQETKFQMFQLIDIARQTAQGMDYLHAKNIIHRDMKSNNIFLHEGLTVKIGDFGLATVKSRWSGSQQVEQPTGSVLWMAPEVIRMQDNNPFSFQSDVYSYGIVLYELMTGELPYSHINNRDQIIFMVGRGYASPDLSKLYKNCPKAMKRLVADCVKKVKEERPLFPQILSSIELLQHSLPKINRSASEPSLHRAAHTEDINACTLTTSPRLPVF
Sequence of RAF kinases (Homo sapiens, UniProt P15056) (P15056 whole entry): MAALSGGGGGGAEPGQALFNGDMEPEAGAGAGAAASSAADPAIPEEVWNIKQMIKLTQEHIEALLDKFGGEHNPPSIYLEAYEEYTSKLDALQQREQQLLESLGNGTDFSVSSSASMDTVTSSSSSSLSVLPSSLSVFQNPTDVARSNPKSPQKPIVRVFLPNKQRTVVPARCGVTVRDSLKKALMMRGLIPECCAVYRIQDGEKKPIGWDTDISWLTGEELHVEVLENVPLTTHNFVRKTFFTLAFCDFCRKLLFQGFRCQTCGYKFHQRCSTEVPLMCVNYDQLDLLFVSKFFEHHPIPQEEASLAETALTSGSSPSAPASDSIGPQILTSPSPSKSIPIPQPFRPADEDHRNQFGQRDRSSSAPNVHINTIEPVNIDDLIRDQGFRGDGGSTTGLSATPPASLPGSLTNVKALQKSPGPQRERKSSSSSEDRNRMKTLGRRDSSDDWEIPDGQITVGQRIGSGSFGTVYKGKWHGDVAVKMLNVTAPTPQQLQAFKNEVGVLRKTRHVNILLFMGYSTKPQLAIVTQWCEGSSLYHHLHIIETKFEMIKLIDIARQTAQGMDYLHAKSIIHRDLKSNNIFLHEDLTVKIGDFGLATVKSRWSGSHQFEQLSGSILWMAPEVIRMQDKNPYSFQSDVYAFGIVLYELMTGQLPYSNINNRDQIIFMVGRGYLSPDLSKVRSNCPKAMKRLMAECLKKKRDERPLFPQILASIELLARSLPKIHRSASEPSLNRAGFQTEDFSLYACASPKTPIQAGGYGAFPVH
Method for A375 cells: The following day, the medium was replaced with 0.5% FBS in M3 for overnight incubation. […] The cells were incubated with compound or control for 72 hours at 37° C. under 10% CO2. Following incubation, Cell Titer Blue reagent (Promega) was added to each well containing compounds or controls, and then incubated for 3 hours at 37° C. under 10% CO2. Proliferation was measured by fluorescence with excitation at 560 nm and emission at 590 nm using SoftMax Pro.

For the compound `COc1cc2ncnc(Sc3cccc(NC(=O)Nc4cc(C5CCCC5)on4)c3)c2cc1OC` [Ex 201, 1-(5-cyclopentylisoxazol-3-yl)-3-(3-(6,7-dimethoxyquinazolin-4-ylthio)phenyl)urea], in test [1], the IC50 lay within 250 to 500 nM. Also, the EC50 with A375 cells was over 1000 nM. Moreover, at RAF kinases [2], the Kd is 250 to 500 nM.
In the case of `COc1cc2ncnc(Oc3cccc(NC(=O)Nc4cc(CN5CCOCC5)cc(C(F)(F)F)c4)c3)c2cc1OC` [Ex 151, 1-(3-(6,7-dimethoxyquinazolin-4-yloxy)phenyl)-3-(3-(morpholinomethyl)-5-(trifluoromethyl)phenyl)urea], the 50% inhibitory concentration (IC50) in test [1] was over 1000 nM. In addition, in the test with A375 cells, the concentration for a half-maximal effect (EC50) was over 1000 nM. At RAF kinases [3], this compound displayed a Kd of 250 to 500 nM.
As for `COc1cc2ncnc(Sc3cccc(NC(=O)Nc4cc(C(C)(C)C)on4)c3)c2cc1OCCN1CCOCC1` [Ex 70, 1-(5-tert-butylisoxazol-3-yl)-3-(3-(7-methoxy-6-(2-morpholinoethoxy)quinazolin-4-ylthio)phenyl)urea], the 50% inhibitory concentration (IC50) in test [1] is under 250 nM. The EC50 with A375 cells was under 250 nM. Also, the Kd at RAF kinases [2] is 250 to 500 nM.
For `COc1cc2ncnc(Sc3cccc(NC(=O)Nc4cccc(C(C)(C)C)c4)c3)c2cc1OC` [Ex 120, 1-(3-tert-butylphenyl)-3-(3-(6,7-dimethoxyquinazolin-4-ylthio)phenyl)urea], the IC50 in test [1] was 250 to 500 nM. In addition, the half-maximal effective concentration (EC50) in the test on A375 cells is over 1000 nM. Moreover, the Kd at RAF kinases [2] was in the range of 250 to 500 nM.
As to `COc1cc2ncnc(Oc3cccc(NC(=O)Nc4cccc(C(C)C)c4)c3)c2cc1OC` [Ex 144, 1-(3-(6,7-dimethoxyquinazolin-4-yloxy)phenyl)-3-(3-isopropylphenyl)urea], the half-maximal inhibitory concentration (IC50) in test [1] fell in the range of 250 to 500 nM. For the same compound, the concentration giving a half-maximal response (EC50) in the test on A375 cells is over 1000 nM. This compound also gave a Kd on RAF kinases [2] of 250 to 500 nM.
In the case of `COc1cc2ncnc(Sc3cccc(NC(=O)Nc4cc(C(C)(C)C)on4)c3)c2cc1OCCCN1CCN(CCO)CC1` [Ex 61, 1-(5-tert-butylisoxazol-3-yl)-3-(3-(6-(3-(4-(2-hydroxyethyl)piperazin-1-yl)propoxy)-7-methoxyquinazolin-4-ylthio)phenyl)urea], the concentration for half-maximal inhibition (IC50) in test [1] is over 1000 nM. For the same compound, in the test on A375 cells, the EC50 was over 1000 nM. At RAF kinases [2], this compound showed a Kd of 250 to 500 nM.
In the case of `CCOc1cc2ncnc(Oc3cccc(NC(=O)Nc4cc(C(C)(C)C)on4)c3)c2cc1OC` [Ex 6, 1-(5-tert-butylisoxazol-3-yl)-3-[3-(7-ethoxy-6-methoxyquinazolin-4-yloxy)phenyl]urea hydrochloride], the 50% inhibitory concentration (IC50) in test [1] was under 250 nM. In addition, the EC50 in the test with A375 cells fell in the range of 250 to 500 nM. On RAF kinases [3], this compound yielded a Kd of 500 to 1000 nM.
`COc1cc2ncnc(Oc3cccc(NC(=O)Nc4cc(C(C)(C)C)on4)c3)c2cc1O` [Ex 107, 1-(5-tert-butylisoxazol-3-yl)-3-(3-(6-hydroxy-7-methoxyquinazolin-4-yloxy)phenyl)urea]: in test [1], the IC50 was under 250 nM. Also, in the test on A375 cells, the half-maximal effective concentration (EC50) fell in the range of 250 to 500 nM. Also, the Kd on RAF kinases [2] was 250 to 500 nM.
For `COc1cc2c(Oc3cccc(NC(=O)Nc4cc(C(C)(C)C)on4)c3)ncnc2cc1O[C@@H]1CCNC1` [Ex 98, (R)-1-(5-tert-butylisoxazol-3-yl)-3-(3-(6-methoxy-7-(pyrrolidin-3-yloxy)quinazolin-4-yloxy)phenyl)urea dihydrochloride], in test [1], the half-inhibitory concentration (IC50) fell in the range of 500 to 1000 nM. Moreover, the 50% effective concentration (EC50) in the test with A375 cells was over 1000 nM. This compound came in with a Kd at RAF kinases [2] of 250 to 500 nM.
For `COc1cc2c(Oc3cccc(NC(=O)Nc4cc(C(C)(C)C)on4)c3)ncnc2cc1OCCCN1CCN(C)CC1` [Ex 28, 1-(5-tert-butylisoxazol-3-yl)-3-(3-(6-methoxy-7-(3-(4-methylpiperazin-1-yl)propoxy)quinazolin-4-yloxy)phenyl)urea] the same measures were under 250 nM, under 250 nM and 250 to 500 nM.
For `COc1cc2ncnc(Oc3cccc(NC(=O)Nc4cc(C(C)(C)C)on4)c3)c2cc1OC` [Ex 1, 1-(5-tert-butylisoxazol-3-yl)-3-(3-(6,7-dimethoxyquinazolin-4-yloxy)phenyl)urea], in test [1], the IC50 is under 250 nM. Also, the EC50 in the test on A375 cells lay in the range of 500 to 1000 nM. The compound also registered a Kd at RAF kinases [3] of 250 to 500 nM.
In the case of `COc1cc2ncnc(Oc3cccc(NC(=O)Nc4cc(C(C)(C)C)on4)c3)c2cc1OCCCN1CCS(=O)(=O)CC1` [Ex 26, 1-(5-tert-butyl-isoxazol-3-yl)-3-(3-{6-[3-(1,1-dioxo-thiomorpholin-4-yl)-propoxy]-7-methoxy-quinazolin-4-yloxy}-phenyl)-urea], the IC50 in test [1] was under 250 nM. For the same compound, in the test with A375 cells, the concentration for a half-maximal effect (EC50) is under 250 nM. In addition, the Kd on RAF kinases [2] fell in the range of 250 to 500 nM.
For `COc1cc2ncnc(Oc3cccc(NC(=O)Nc4cc(C(C)(C)CO)on4)c3)c2cc1OC` [Ex 131, 1-(3-(6,7-dimethoxyquinazolin-4-yloxy)phenyl)-3-(5-(1-hydroxy-2-methylpropan-2-yl)isoxazol-3-yl)urea], the half-maximal inhibitory concentration (IC50) in test [1] is 500 to 1000 nM. In addition, in the test with A375 cells, the 50% effective concentration (EC50) is over 1000 nM. Further, the Kd at RAF kinases [2] lay in the range of 250 to 500 nM.
As to `COc1cc2ncnc(Sc3cccc(NC(=O)Nc4cc(C(C)(C)C)on4)c3)c2cc1OCCCN1CCOCC1` [Ex 63, 1-(5-tert-butylisoxazol-3-yl)-3-(3-(7-methoxy-6-(3-morpholinopropoxy)quinazolin-4-ylthio)phenyl)urea], in test [1], the IC50 is under 250 nM. Moreover, in the test on A375 cells, the EC50 lay in the range of 500 to 1000 nM. Further, the Kd at RAF kinases [2] fell in the range of 250 to 500 nM.
The like results for `COc1cc2ncnc(Oc3cccc(NC(=O)Nc4cc(C(C)(C)C)on4)c3)c2cc1OCCN1CCCCC1` [Ex 16, 1-(5-tert-butylisoxazol-3-yl)-3-(3-(7-methoxy-6-(2-(piperidin-1-yl)ethoxy)quinazolin-4-yloxy)phenyl)urea] were, in that order, 250 to 500 nM, over 1000 nM and 500 to 1000 nM.
The like results for `COc1cc2ncnc(Oc3cccc(NC(=O)Nc4cccc(C(C)(C)C)c4)c3)c2cc1OC` [Ex 118, 1-(3-tert-butylphenyl)-3-(3-(6,7-dimethoxyquinazolin-4-yloxy)phenyl)urea] were, in that order, 250 to 500 nM, over 1000 nM and 250 to 500 nM.
For `COc1cc2ncnc(Oc3cccc(NC(=O)Nc4cc(C(C)(CF)CF)on4)c3)c2cc1OC` [Ex 162, 1-[5-(1,3-difluoro-2-methylpropan-2-yl)isoxazol-3-yl]-3-[3-(6,7-dimethoxyquinazolin-4-yloxy)phenyl]urea] the same measures were under 250 nM, under 250 nM and 250 to 500 nM.
Turning to `COc1cc2ncnc(Sc3cccc(NC(=O)Nc4cc(C(C)(C)C)on4)c3)c2cc1OCCCN1CCS(=O)(=O)CC1` [Ex 62, 1-(5-tert-butyl-isoxazol-3-yl)-3-(3-{6-[3-(1,1-dioxo-thiomorpholin-4-yl)-propoxy]-7-methoxy-quinazolin-4-ylsulfanyl}-phenyl)-urea], in test [1], the IC50 was under 250 nM. For the same compound, the EC50 with A375 cells was under 250 nM. The compound further yielded a dissociation constant (Kd) at RAF kinases [2] of 250 to 500 nM.
`COc1cc2ncnc(Oc3cccc(NC(=O)Nc4ccc(C(F)(F)F)cc4)c3)c2cc1OC` [Ex 183, 1-(3-(6,7-dimethoxyquinazolin-4-yloxy)phenyl)-3-(4-(trifluoromethyl)phenyl)urea]: in test [1], the IC50 was 500 to 1000 nM. In addition, the concentration for a half-maximal effect (EC50) in the test on A375 cells is over 1000 nM. Further, the Kd on RAF kinases [2] is 250 to 500 nM.
For `COc1cc2ncnc(Oc3cccc(NC(=O)Nc4ccc(OC(F)(F)F)cc4)c3)c2cc1OC` [Ex 177, 1-(3-(6,7-dimethoxyquinazolin-4-yloxy)phenyl)-3-(4-(trifluoromethoxy)phenyl)urea] the same measures were over 1000 nM, over 1000 nM and 250 to 500 nM.
Turning to `COc1cc2ncnc(Sc3cccc(NC(=O)Nc4cccc(C(F)(F)F)c4)c3)c2cc1OC` [Ex 185, 1-(3-(6,7-dimethoxyquinazolin-4-ylthio)phenyl)-3-(3-(trifluoromethyl)phenyl)urea], the IC50 in test [1] lay within 500 to 1000 nM. The 50% effective concentration (EC50) in the test with A375 cells is over 1000 nM. Moreover, the Kd at RAF kinases [2] was in the range of 250 to 500 nM.
For `COc1cc2c(Sc3cccc(NC(=O)Nc4cc(C(C)(C)C)on4)c3)ncnc2cc1OCCCN1CCC(CO)CC1` [Ex 74, 1-(5-tert-butylisoxazol-3-yl)-3-(3-(7-(3-(4-(hydroxymethyl)piperidin-1-yl)propoxy)-6-methoxyquinazolin-4-ylthio)phenyl)urea], the half-inhibitory concentration (IC50) in test [1] was under 250 nM. For the same compound, the EC50 with A375 cells lay in the range of 250 to 500 nM. At RAF kinases [2], this compound returned a Kd of 250 to 500 nM.
Regarding `COc1cc2ncnc(Sc3cccc(NC(=O)Nc4cc(C(C)(CF)CF)on4)c3)c2cc1OC` [Ex 191, 1-[5-(1,3-difluoro-2-methylpropan-2-yl)isoxazol-3-yl]-3-[3-(6,7-dimethoxyquinazolin-4-ylthio)phenyl]urea], the half-maximal inhibitory concentration (IC50) in test [1] was under 250 nM. Further, in the test on A375 cells, the EC50 was under 250 nM. This compound came in with a Kd at RAF kinases [2] of 250 to 500 nM.
Turning to `COc1cc2c(Oc3cccc(NC(=O)Nc4cc(C(C)(C)C)on4)c3)ncnc2cc1O[C@H]1CCNC1` [Ex 96, (S)-1-(5-tert-butylisoxazol-3-yl)-3-(3-(6-methoxy-7-(pyrrolidin-3-yloxy)quinazolin-4-yloxy)phenyl)urea dihydrochloride], the IC50 in test [1] is 250 to 500 nM. In the test on A375 cells, the EC50 is over 1000 nM. On RAF kinases [2], this compound had a Kd of 250 to 500 nM.
As to `COc1cc2ncnc(Oc3cccc(NC(=O)Nc4cc(C(C)(C)C)on4)c3)c2cc1OC[C@@H](O)CN1CCN(C)CC1` [Ex 111, (S)-1-(5-tert-butylisoxazol-3-yl)-3-(3-(6-(2-hydroxy-3-(4-methylpiperazin-1-yl)propoxy)-7-methoxyquinazolin-4-yloxy)phenyl)urea], the 50% inhibitory concentration (IC50) in test [1] is under 250 nM. Also, the EC50 with A375 cells was in the range of 250 to 500 nM. For the same compound, the Kd at RAF kinases [2] lay within 250 to 500 nM.
Regarding `COc1cc2ncnc(Sc3cccc(NC(=O)Nc4cc(C(C)(C)F)no4)c3)c2cc1OC` [Ex 187, 1-(3-(6,7-dimethoxyquinazolin-4-ylthio)phenyl)-3-(3-(2-fluoropropan-2-yl)isoxazol-5-yl)urea], the half-maximal inhibitory concentration (IC50) in test [1] was under 250 nM. Moreover, the EC50 in the test on A375 cells is over 1000 nM. Also, the Kd on RAF kinases [2] was in the range of 250 to 500 nM.
On to `COc1cc2ncnc(Oc3cccc(NC(=O)Nc4ccc(OC)c(C(F)(F)F)c4)c3)c2cc1OC` [Ex 138, 1-(3-(6,7-dimethoxyquinazolin-4-yloxy)phenyl)-3-(4-methoxy-3-(trifluoromethyl)phenyl)urea], for which the half-inhibitory concentration (IC50) in test [1] was in the range of 250 to 500 nM. Further, in the test on A375 cells, the EC50 was over 1000 nM. This compound gave an equilibrium dissociation constant (Kd) at RAF kinases [2] of 250 to 500 nM.
